This is an account of results in patent US20260364057A1, “AMIDE COMPOUND, AND COMPOSITION AND USE THEREOF” (SIMCERE ZAIMING PHARMACEUTICAL CO., LTD., priority 2022, published 2026).

The target in test [1] is T1, Human KIF18A (1-376aa) (Homo sapiens, UniProt Q8NI77).
T1 construct: Human KIF18A (1-376aa) protease used in the experiments; purchased Shanghai Panchao Biotechnology Co., Ltd
T1 sequence (Q8NI77 1-376): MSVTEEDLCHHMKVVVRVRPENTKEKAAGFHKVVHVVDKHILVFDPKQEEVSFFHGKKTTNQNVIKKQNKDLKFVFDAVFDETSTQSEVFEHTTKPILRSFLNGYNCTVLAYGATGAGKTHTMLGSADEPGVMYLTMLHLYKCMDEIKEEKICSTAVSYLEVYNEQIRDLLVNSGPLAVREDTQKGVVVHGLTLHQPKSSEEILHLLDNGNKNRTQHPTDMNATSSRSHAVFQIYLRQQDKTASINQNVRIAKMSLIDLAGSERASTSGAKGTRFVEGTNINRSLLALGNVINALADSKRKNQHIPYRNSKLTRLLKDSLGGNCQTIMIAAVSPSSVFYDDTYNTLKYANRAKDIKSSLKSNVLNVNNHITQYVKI
The test can be described thus: KIF18A enzyme activity assay (ADP-Glo). Format: biochemical. The conditions noted are these: microtubule 50 μg/mL, ATP (Km 70 μM), room temperature, 15 min, read-out: KIF18A inhibitory activity IC50. The procedure:
Test Example 1: KIF18A Enzyme Activity Assay
Based on the ADP-Glo™ Kinase Assay, the ADP amount generated in the reaction was detected to reflect the enzyme activity of KIF18A.
Human KIF18A (1-376aa) […] used in the experiments, expressed by Shanghai Panchao Biotechnology Co., Ltd., was stored at −80 °C (no more than 5 freeze-thaw cycles).
The assay kit (ADP-Glo™ Kinase Assay) was purchased from Promega (Cat. No. V9101) and stored at −30 °C. The kit detects the enzyme activity by measuring ADP generated in enzyme reaction. The KIF18A enzyme and ATP generate ADP. The remaining ATP in this reaction is consumed by the ADP-Glo reagent, while the ADP generated by the KIF18A enzyme reaction is converted back to ATP by the assay reagent. The ATP then reacts with luciferin in the presence of Ultra-Glo™ luciferase, producing luminescence. The luminescent signal is positively correlated with the activity of the KIF18A enzyme.
Compounds were each subjected to 3-fold serial dilution starting from 10 μM to obtain 10 concentration points. The compounds and pure DMSO (control) were pipetted into wells of a 384-well plate using an Echo instrument, and the total volume of compound and DMSO was 100 nL; sample concentrations of gradient dilution were obtained by the instrument based on different ratios. Preparation of a KIF18A enzyme reaction buffer: […], 10 mM MgCl2, 0.01% Pluronic F-68, 1 μM Taxol, and 50 μg/mL Microtubule. KIF18A and the enzyme reaction buffer were mixed, and then the mixed solution was added to the 384-well plate and incubated at room temperature for 15 min. ATP (Km 70 μM) was then added to the mixed solution, and the mixed solution was incubated at room temperature for 15 min. 10 μL of ADP-Glo™ Reagent was well mixed with 10 μL of the mixed solution, and the mixture was incubated at room temperature for 40 min. Finally, 20 μL of ADP-Glo™ Detection Reagent was added, and the mixture was incubated at room temperature for 30 min. The chemiluminescent signal in each well was measured using an Envision plate reader (PerkinElmer, emission wavelength: 400-700 nm). In the experiment, 1 column of wells with no compound and no enzyme (chemiluminescence value was taken as [RLU]background) and 1 column of wells with enzyme but no compound (chemiluminescence value was taken as [RLU]enzyme) were provided. The chemiluminescence value of the compound adding group was taken as [RLU]cpd. The inhibition rate of the compound on […] was calculated according to the following equation: inhibition rate (%)=([RLU]enzyme−[RLU]cpd)/([RLU]enzyme−[RLU]background)×100%, and the inhibitory activity IC50 value of the compound on the enzyme activity was calculated using a four-parameter Logistic Model method. In the following equation, x represents the logarithmic form of the concentration of compound, and f (x) represents an effect value (inhibition rate of enzyme activity at the concentration): F(x)=(A+((B−A)/(1+((C/x)^D)))). A. B, C, and D are four parameters.
On the technique in general: In ADP-Glo the light output rises with the ADP produced.

Test [2] has as its system OVCAR3 cells. The test can be described thus: Inhibition of proliferation of OVCAR-3 cells (Cell-Titer Glo). Format: cell-based. The conditions noted are these: Homo sapiens, OVCAR-3, 72 h, 3 days, 1000 cells/well. The text has this:
Test Example 2. Test on Inhibition of Proliferation of OVCAR-3 Cells by Compounds of Present Disclosure
Cell and material: The human ovarian cancer cell line OVCAR3 was purchased from ATCC (Cat. No. HTB-161™), RPMI 1640 medium (Gibco #A1049101), penicillin-streptomycin (Gibco #15140122), and 0.25% Trypsin-EDTA (Gibco #25200056) were purchased from Gibco (U.S.), bovine insulin (Yeasen #40107ES60) was purchased from Yeasen, 384-well plates (Corning #CLS3765) was purchased from Corning (U.S.), and Cell-Titer Glo reagent (Promega #G7568) was purchased from Promega (U.S.).
Cell culture: OVCAR3 cells were cultured in RPMI 1640 complete medium (RPMI 1640 medium containing 20% fetal bovine serum, […] bovine insulin, and 1% penicillin-streptomycin) in an incubator (37 °C, 5% CO2), and the cells could be used in experiments when in the logarithmic growth phase.
Cell proliferation activity test: The Cell-Titer Glo reagent was used to test the compound for inhibition of proliferation of the OVCAR3 cell strain. The compound formulated with DMSO and pure DMSO (control) were each added to a 384-well plate using an Echo instrument; the compound was subjected to 3-fold serial dilution starting from 30 μM to obtain 11 concentration points, and the volume of the compound or DMSO added was 100 nL.
OVCAR3 cells were digested and resuspended in RPMI 1640 complete medium, and the suspension was added to a 384-well plate (1000 cells/50 μL/well) to be well mixed with the compound. The mixture was incubated in an incubator (37 °C, 5% CO2) for 3 days. The Cell-Titer Glo reagent was added at 25 µL/well, and the resulting mixture was well mixed by shaking and then incubated for 10 min. The Cell-Titer Glo readings were measured with a Multimode Plate Reader (brand: PerkinElmer; model: SIC-PV-018).
A negative control group (Bottom) was set, and the negative control group was medium wells with 0.2% DMSO added and was defined as 100% proliferation inhibition; the positive control group (Top) was OVCAR3 cell wells with 0.2% DMSO added.
The percent proliferation inhibition (% Inhibition) was calculated, and the curves were fit using the four-parameter equation, Y=Bottom+(Top−Bottom)/(1+(IC50/X)^HillSlope), to obtain the proliferation inhibition IC50 of the compound. • Percent inhibition: % Inhibition=(1−(Signal−Bottom)/(Top−Bottom))×100%. • Signal: Cell-Titer Glo reading of wells with compound added; • Bottom: Cell-Titer Glo reading of negative control wells; • Top: Cell-Titer Glo reading of positive control wells.

By IC50 is commonly meant the midpoint of a concentration-inhibition curve. Take `O=C(Nc1cc2c(c(N3CCC(F)(F)CC3)n1)COC2)c1ccc(NS(=O)(=O)CCO)cc1N1CCC2(CC1)CC2` [Compound 67]: the IC50 is under 200 nM in test [1] and 70 nM in test [2].
For `CC1CCCCc2nc3c(NC(=O)c4ccc(NS(=O)(=O)CCO)cc4N4CCC5(CC4)CC5)cccc3n21` (stereo not drawn) [Compound 68], in that order: under 200 nM and 41.6 nM.
For `O=C(Nc1cccc2c1nc1n2CC2CC2C1)c1ccc(NS(=O)(=O)CCO)cc1N1CCC2(CC1)CC2` (stereo not drawn) [Compound 70], in that order: under 200 nM and 93.3 nM.
Turning to `O=C(Nc1cccc2c1nc1n2CCC2CC12)c1ccc(NS(=O)(=O)CCO)cc1N1CCC2(CC1)CC2` (stereo not drawn) [Compound 71], the figures for the half-inhibitory concentration (IC50) in test [1] and in test [2] were under 200 nM and 94.2 nM, respectively.
For `O=C(Nc1cccc2c1nc1n2C2CCC1C2)c1ccc(NS(=O)(=O)CCO)cc1N1CCC2(CC1)CC2` (stereo not drawn) [Compound 72], in that order: under 200 nM and 57.3 nM.
`CCS(=O)(=O)Nc1ccc(C(=O)Nc2cc3c(c(N4CCC(F)(F)CC4)c2)CCC3)c(N2CCC3(CC2)CC3)c1` [Compound 73]: the IC50 in test [1] is under 200 nM; in test [2], 38 nM.
On the same counts, the results for `O=C(Nc1cccc2c1nc1n2CC2CCC1C2(F)F)c1ccc(NS(=O)(=O)CCO)cc1N1CCC2(CC1)CC2` (stereo not drawn) [Compound 74] are under 200 nM and 24 nM.
For `O=C(Nc1cccc2c1nc1n2CC(C(F)(F)F)C1)c1ccc(NS(=O)(=O)CCO)cc1N1CCC2(CC1)CC2` (stereo not drawn) [Compound 76], in that order: under 200 nM and 43.1 nM.
For `O=C(Nc1cccc2c1nc1n2C2CCC1OC2)c1ccc(NS(=O)(=O)CCO)cc1N1CCC2(CC1)CC2` (stereo not drawn) [Compound 77], in that order: under 200 nM and 25.4 nM.
On to `O=C(Nc1cccc2c3n(nc12)CCCCC3)c1ccc(NS(=O)(=O)CCO)cc1N1CCC2(CC1)CC2` [Compound 78], for which the IC50 in test [1] is under 200 nM; in test [2], 45.3 nM.
Regarding `O=C(Nc1cc(N2CCC(F)(F)CC2)c2nccn2c1)c1ccc(NS(=O)(=O)CCO)cc1N1CCC2(CC1)CC2` [Compound 80], the IC50 in test [1] is under 200 nM; in test [2], 24 nM.
As to `O=C(Nc1cc(N2CCC(F)(F)CC2)n2nccc2c1)c1ccc(NS(=O)(=O)CCO)cc1N1CCC2(CC1)CC2` [Compound 81], the IC50 in test [1] was under 200 nM; in test [2], 18.2 nM.
Consider `CC1(C)Cc2cc(NC(=O)c3ccc(NS(=O)(=O)CCO)cc3N3CCC4(CC3)CC4)cc(N3CCC(F)(F)CC3)c2O1` [Compound 82], for which the IC50 is under 200 nM in test [1] and 99.3 nM in test [2].
For `O=C(Nc1cccc2c1nc1n2C2COC1C2)c1ccc(NS(=O)(=O)CCO)cc1N1CCC2(CC1)CC2` (stereo not drawn) [Compound 83], in that order: under 500 nM and 86 nM.
On the same counts, the results for `O=C(Nc1cccc2c1nc1n2CC2C1C2(F)F)c1ccc(NS(=O)(=O)CCO)cc1N1CCC2(CC1)CC2` (stereo not drawn) [Compound 86] are under 200 nM and 6.5 nM.
On the same counts, the results for `CC1(C)Cn2c(nc3c(NC(=O)c4ccc(NS(=O)(=O)CCO)cc4N4CCC5(CC4)CC5)cccc32)CO1` [Compound 87] are under 200 nM and 31 nM.
For the molecule `O=C(Nc1cccc2c1nc1n2CC2CC1C2(F)F)c1ccc(NS(=O)(=O)CCO)cc1N1CCC2(CC1)CC2` (stereo not drawn) [Compound 88], the IC50 in test [1] is under 200 nM; in test [2], 98 nM.
Regarding `N#Cc1ccc(NC(=O)c2ccc(NS(=O)(=O)CCO)cc2N2CCC3(CC2)CC3)c2nc3n(c12)CC1CC31` (stereo not drawn) [Compound 92], the IC50 is under 200 nM in test [1] and 48.4 nM in test [2].
For `COc1ccc(NC(=O)c2ccc(NS(=O)(=O)CCO)cc2N2CCC3(CC2)CC3)c2nc3n(c12)CCCCC3` [Compound 96], in that order: under 200 nM and 25 nM.
On the same counts, the results for `O=C(Nc1cc2c(c(N3CCC(F)(F)CC3)c1)COC2)c1ccc(NS(=O)(=O)CCO)cc1N1CCC2(CC1)CC2` [Compound 101] are under 200 nM and 9.1 nM.
Take `O=C(Nc1cc2c(c(N3CCC(F)(F)CC3)c1)CC2)c1ccc(NS(=O)(=O)CCO)cc1N1CCC2(CC1)CC2` [Compound 103]: the IC50 was under 200 nM in test [1] and 14.7 nM in test [2].
For `CS(=O)(=O)Nc1ccc(C(=O)Nc2cn3ccnc3c(N3CCC(F)(F)CC3)n2)c(N2CCC3(CC2)CC3)c1` [Compound 105], the values for the IC50 in test [1] and in test [2] were under 200 nM and 14.9 nM, respectively.
Regarding `O=C(Nc1cc2ccoc2c(N2CCC(F)(F)CC2)n1)c1ccc(NS(=O)(=O)CCO)cc1N1CCC2(CC1)CC2` [Compound 106], the half-inhibitory concentration (IC50) in test [1] is under 200 nM; in test [2] it was 15.7 nM.
On the same counts, the results for `O=C(Nc1cccc2c3c(nn12)C1CC1C3)c1ccc(NS(=O)(=O)CCO)cc1N1CCC2(CC1)CC2` (stereo not drawn) [Compound 107] are under 200 nM and 99.3 nM.
On the same counts, the results for `O=C(Nc1cc2ccnn2c(N2CCC(F)(F)CC2)n1)c1ccc(NS(=O)(=O)CCO)cc1N1CCC2(CC1)CC2` [Compound 109] are under 200 nM and 37.4 nM.
`N#Cc1ccc(NC(=O)c2ccc(NS(=O)(=O)CCO)cc2N2CCC3(CC2)CC3)c2nc3n(c12)CC1C3C1(F)F` (stereo not drawn) [Compound 110]: the half-maximal inhibitory concentration (IC50) is under 200 nM in test [1] and 11.2 nM in test [2].
For `COC(=O)c1ccc(NC(=O)c2ccc(NS(=O)(=O)CCO)cc2N2CCC3(CC2)CC3)c2nc3n(c12)CCCCC3` [Compound 112], in that order: under 200 nM and 15.3 nM.
